Results from patent US20100120788A1, “IDENTIFICATION OF POLYNUCLEOTIDES FOR […] OF COMPOUNDS THAT […] WITH AND/OR MODULATE PROTEIN TYROSINE KINASES AND/OR PROTEIN TYROSINE KINASE […] IN PROSTATE CELLS” (Bristol-Myers Squibb Company, priority 2007, published 2010).

Legend:
[1] = tested on: secreted uPA protein in PC3 cells; assay: uPA protein ELISA assay of culture medium; assay type: cell-based, human; settings: different doses, 24 h, per 50,000 viable cells
From the text: FIG. 3. PLAU gene expression and regulation by dasatinib analyzed at mRNA and protein levels. (A) Differential baseline expression of PLAU gene between resistant (R, in black) and sensitive (S, in red) cell lines. The X-values are the expression level in log2-scale. The resistant cell line expressing high level of PLAU was WPMY1 and the sensitive cell line expressing low level of PLAU was LNCaP. (B) Down-regulation of PLAU mRNA level by dasatinib-treatment in 5 sensitive cell lines. The cells were treated with 100 nM dasatinib (+D) or DMSO (Ctrl) for 48 hours. The p value was 0.048 in paired t-test, indicating a significant reduction of PLAU mRNA following dasatinib treatment. (C) Correlation between dasatinib-induced PLAU mRNA down-regulation with the sensitivity of cell lines to dasatinib. […] The amount of uPA protein secreted into the culture medium by 50,000 viable cells was assessed by ELISA assay. […]
Cell were seeded in 24-well plates at density of 25,000 cells/well. […] Total number of cells were also quantitated using a cell counter, and the number of viable cells were assessed with Trypan Blue. The amount of uPA protein in the supernatant was determined using the uPA ELISA kit (America Diagnostica, Stamford, Conn.), and the concentrations of uPA secreted by 50,000 viable cells into the medium were calculated.

[2] = tested on: PC3 xenograft tumors; assay: PC3 xenograft tumor growth; assay type: in vivo, nu/nu athymic mice; settings: 15 or 30 mg/kg orally twice a day, 5-day-on 2-day-off, 20 doses
Protocol: (§1) FIG. 5. […] Xenograft tumors were established subcutaneously in nu/nu athymic mice. The mice were divided into three groups each with 8 mice after tumors had reached approximately 200 mg. […] Dasatinib was administered orally twice a day on a 5-day-on 2-day-off schedule for 20 doses. The tumor size measurement and blood sampling were performed prior to treatment and weekly for two weeks after treatment initiation. […] Experiments were performed as described in Example 2.
(§2) The mice were divided into three groups each with 8 mice after tumors had reached approximately 200 mg. […] Dasatinib was administered orally twice a day on a 5-day-on 2-day-off schedule for 20 doses. The tumor size measurement and blood sampling were performed prior to treatment and weekly for two weeks after treatment initiation. Tumor weight was determined using the following equation: tumor weight=(length*width^2)/2.

[3] = tested on: uPA protein; assay: uPA protein level in plasma of mice bearing PC3 xenograft tumors (ELISA); assay type: in vivo, nu/nu athymic mice; settings: 30 mg/kg orally twice a day; following first week of treatment
Protocol: as §1, §2

[4] = tested on: PWR1E, RWPE2, PC3, DU145 and LNCaP cells; assay: Microarray gene expression profiling of drug-treated vs mock-treated cell lines (genes modulated by BMS-A); assay type: cell-based, human
Protocol: AFFYMETRIX® HG-U133v2 gene chips containing ˜22,000 probe sets were used for gene expression profiling (Affymetrix, Santa Clara, Calif.). Total RNA was isolated from the cells using the RNeasy kits (Qiagen, Valencia, Calif.). The quality of the RNA was assessed using an Agilent 2100 Bioanalyzer (Agilent, Santa Clara, Calif.). Ten μg of total RNA was used for the preparation of biotin-labeled cRNA. Chip hybridization, scanning and data acquisition were performed according to the Expression Analysis Technical Manual provided by the manufacturer.
The raw expression data were normalized using an RMA algorithm and analyzed in PARTEK® Discovery Suite software (Partek, St Louis, Mo.). Two statistical analyses including 1-way ANOVA for comparison of gene expression between sensitive and resistant cell line groups, and Pearson correlation between gene expression level and log2IC50 values were performed to identify genes whose baseline expression levels correlated with the sensitivity to dasatinib in 16 prostate cell lines (p value<0.05 in both analyses). […] ESTs and gene duplicates were eliminated from the final list. Gene expression profiles of drug treated (100 nM for 2 days) cell lines were compared with those of DMSO control using paired t-test (p value<0.05). Clustering analysis was performed using GeneCluster software and heatmaps were generated with red and green indicating high or low expression respectively.

[5] = 100 nM for 2 days vs DMSO control, paired t-test p<0.05, 5 sensitive cell lines

## Cc1nc(Nc2ncc(C(=O)Nc3c(C)cccc3Cl)s2)cc(N2CCN(CCO)CC2)n1 [BMS-A, N-(2-chloro-6-methylphenyl)-2-[[6-[4-(2-hydroxyethyl)-1-piperazinyl]-2-methyl-4-pyrimidinyl]amino]-5-thiazolecarboxamide]
[1]
  amount of uPA protein secreted into the growth medium: reduced
[2]
  PC3 xenograft tumor growth: inhibited
[3]
  reduction of plasma uPA level: ~30%
[4]; [5]
  Modulated by BMS-A: ANXA3 (annexin A3) expression: Decreased
  Modulated by BMS-A: ARNTL2 expression: Decreased
  Modulated by BMS-A: AXL expression: Decreased
  Modulated by BMS-A: CST6 (cystatin E/M) expression: Decreased
  Modulated by BMS-A: EREG (epiregulin) expression: Decreased
  Modulated by BMS-A: FHL2 expression: Decreased
  Modulated by BMS-A: LAMC2 (laminin, gamma 2) expression: Decreased
  Modulated by BMS-A: PLAU (plasminogen activator, urokinase) expression: Decreased
  Modulated by BMS-A: SCEL (sciellin) expression: Decreased
  Modulated by BMS-A: ZBED2 expression: Decreased
[4]; gene AXL receptor tyrosine kinase (AXL), probe 202686_s_at, Gene No. 52, expressed in sensitive cell lines
  Modulated by BMS-A (p < 0.05): AXL expression: decreased
[4]; gene annexin A3 (ANXA3), probe 209369_at, Gene No. 8, expressed in sensitive cell lines
  Modulated by BMS-A (p < 0.05): ANXA3 expression: decreased
[4]; gene aryl hydrocarbon receptor nuclear translocator-like 2 (ARNTL2), probe 220658_s_at, Gene No. 100, expressed in sensitive cell lines
  Modulated by BMS-A (p < 0.05): ARNTL2 expression: decreased
[4]; gene cystatin E/M (CST6), probe 206595_at, Gene No. 15, expressed in sensitive cell lines
  Modulated by BMS-A (p < 0.05): CST6 expression: decreased
[4]; gene epiregulin (EREG), probe 205767_at, Gene No. 43, expressed in sensitive cell lines
  Modulated by BMS-A (p < 0.05): EREG expression: decreased
[4]; gene four and a half LIM domains 2 (FHL2), probe 202949_s_at, Gene No. 54, expressed in sensitive cell lines
  Modulated by BMS-A (p < 0.05): FHL2 expression: decreased
[4]; gene laminin, gamma 2 (LAMC2), probe 202267_at, Gene No. 33, expressed in sensitive cell lines
  Modulated by BMS-A (p < 0.05): LAMC2 expression: decreased
[4]; gene plasminogen activator, urokinase (PLAU, also referred to as uPA), probe 205479_s_at, Gene No. 63, expressed in sensitive cell lines
  Modulated by BMS-A (p < 0.05): PLAU (uPA) expression: decreased
[4]; gene sciellin (SCEL), probe 206884_s_at, Gene No. 3, expressed in sensitive cell lines
  Modulated by BMS-A (p < 0.05): SCEL expression: decreased
